The record followed here is article PMC11459967 (Antimicrobial Agents and Chemotherapy, 2024).

As a reminder, the IC50 is the concentration that inhibits the measured activity by half. Low values mean greater potency in that assay, high ones weaker potency in that assay. As usually defined, the EC50 is the concentration needed to bring the measured effect to its halfway point. By inhibition is commonly meant the drop in the measured response relative to a control, in per cent.

Each structure is given as a SMILES string.

For experiment [1], the target named is SARS-CoV-2 Mpro (Severe acute respiratory syndrome coronavirus 2, UniProt P0DTC1). The experiment is described as follows: biochemical. Type of experiment: biochemical.
Experiment [2] relates to SARS-CoV-2 (USA-WA1/2020 variant). Put plainly: Cytopathic effect (CPE) live virus cell viability assay in Vero-E6 cells. Type of experiment: cell-based. The note with it: for EC50: Severe acute respiratory syndrome coronavirus 2, Vero C1008, 96 h, read-out: EC50 viral CPE assay. On the technique in general: Damage to the host cells serves as the signal in cytopathic effect assays.

`O=C(CN1C(=O)C(NC(=O)OCc2ccccc2)COc2ccccc21)NC(CC1CCNC1=O)C(=O)COC(=O)c1c(Cl)cccc1Cl` (centres unmarked) [Compound 1] displayed an IC50 in experiment [1] of 230 ± 18 nM. The “fold less potent (Mpro) than compound 18” value in experiment [1] (ratio of Mpro IC50 versus Pfizer lead compound 18) is ~ 20 fold. For the same molecule, in experiment [2], the “fold reduced in activity compared to 18” value turned out to be 2.2 fold, the “fold reduced in activity compared to GC-376” value is 4.1 fold and the EC50 was 7500 ± 2000 nM. The inhibition at 5 µM in experiment [2] (Severe acute respiratory syndrome coronavirus 2, Vero C1008, single treatment, 5 µM of 1, 96 h, three independent experiments, read-out: inhibition of CPE in infected cells) was 19.5 ± 13.7%.

In the case of `COc1cccc2[nH]c(C(=O)N[C@@H](CC(C)C)C(=O)N[C@@H](C[C@@H]3CCNC3=O)C(=O)COC(=O)c3c(Cl)cccc3Cl)cc12` [Compound 18, reference compound], half-maximal inhibition in experiment [1] (IC50) required 11 ± 0.7 nM. In experiment [2], the EC50 came to 3400 ± 1400 nM.

In the case of `O=C(CN1C(=O)[C@@H](NC(=O)c2ccccc2)COc2ccccc21)N[C@@H](C[C@@H]1CCNC1=O)C(=O)COC(=O)c1c(Cl)cccc1Cl` [Compound 19], the IC50 in experiment [1] turned out to be 620 ± 48 nM. The EC50 in experiment [2] came out at 25000 ± 5000 nM.

`O=C(CN1C(=O)[C@@H](NC(=O)c2ccc3ccccc3n2)COc2ccccc21)N[C@@H](C[C@@H]1CCNC1=O)C(=O)COC(=O)c1c(Cl)cccc1Cl` [Compound 20] returned an IC50 in experiment [1] of 580 ± 40 nM. Further, the EC50 in experiment [2] turned out to be 44500 ± 7400 nM.

As to `O=C(CN1C(=O)[C@@H](NC(=O)OCc2ccccc2)COc2ccccc21)N[C@@H](C[C@@H]1CCNC1=O)C(=O)COc1cc(C(F)(F)F)nn1-c1ccc(F)cc1` [Compound 21], the IC50 in experiment [1] amounted to 3100 nM. For the same molecule, in experiment [1] (ratio of Mpro IC50 versus compound 1), the “fold less Mpro activity compared to 1” value was “more than 10 fold”. Also, in experiment [2], the EC50 came out at 73500 ± 12400 nM.

The molecule `CC(C)C[C@H](NC(=O)OCc1ccccc1)C(=O)N[C@@H](C[C@@H]1CCNC1=O)C(O)S(=O)(=O)O` (some centres unmarked) [GC-376, reference compound] returned an IC50 in experiment [1] of 18 ± 1.5 nM. In experiment [1] (Mpro enzymatic assay), the “time to achieve maximum inhibition” value is reported as ≤ 10 min. Also, in experiment [2], the EC50 is 1800 ± 400 nM.

As to `CCC(CC)COC(=O)[C@H](C)N[P@](=O)(OC[C@H]1O[C@@](C#N)(c2ccc3c(N)ncnn23)[C@H](O)[C@@H]1O)Oc1ccccc1` [Remdesivir, reference compound], in experiment [2], the EC50 came out at 2700 ± 500 nM. Moreover, the inhibition at 1 µM in experiment [2] (Severe acute respiratory syndrome coronavirus 2, Vero C1008, single treatment, 1 µM of remdesivir, 96 h, three independent experiments, read-out: inhibition of CPE in infected cells) came out at 3.6 ± 3.1%.
